Laboratory results published in patent US7186728B2, “Methylene-4-azasteroids” (Schering AG, priority 2001, dated 2007).

System: action of testosterone propionate (TP) on the growth of the seminal vesicle and prostate
Experiment: Antiandrogenic activity: inhibition of testosterone propionate (TP) action on accessory genital gland growth in castrated immature male rats
Format: in vivo, rat
Details: for Effects of testosterone propionate, TP, on the prostate and seminal vesicle (in words): castrated immature male rats, TP + compound; for Inhibition of the action of testosterone propionate (TP) on the growth of the prostate / Inhibition of the action of testosterone propionate (TP) on the growth of the seminal vesicle: sexually immature castrated male rats, TP 0.1 mg/animal/day s.c. + 5α-reductase inhibitor 1 mg/animal/day s.c., 7 days, difference vehicle controls and TP controls = 100%
Description: Evaluation of antiandrogenic activity of the compounds of the invention was performed in castrated male rats (see FIGS. 1 to 5/table). Castrated immature male rats were treated for 7 days with testosterone propionate (TP) and the substances of the invention (0.1 mg of TP alone and/or 1 mg of 5α-reductase inhibitor/animal/day, s.s., n=5–10/group). The treatment with TP caused a severe increase in weight of the accessory genital glands (prostate and seminal vesicle). In the animals treated with the vehicle and with 5α-reductase inhibitor alone, the weights of the examined organs remained at low values. The substances of the invention exerted an inhibitory effect in the test systems selected. […] [table]

Compound	Effects of testosterone propionate, TP, on the prostate and seminal vesicle (in words)	Inhibition of the action of testosterone propionate (TP) on the growth of the prostate	Inhibition of the action of testosterone propionate (TP) on the growth of the seminal vesicle
CN1C(=O)CC[C@@H]2C3CC[C@]4(C)/C(=C/Cl)CCC4C3CC[C@H]21 (stereo partly drawn) [J 1879]	appreciably reduced	34%	25%
CN1C(=O)CC[C@]2(C)C3CC[C@]4(C)/C(=C/Cl)CCC4C3CC[C@@H]12 (stereo partly drawn) [J 1924]	appreciably reduced	39%	41%
